# Tests used:
# [1] = target: T1, DP IV (Homo sapiens, UniProt P27487); assay: DP IV inhibition IC50, parallel-synthesis compounds tested directly following synthesis (without purification); assay type: biochemical; set-up: IC50 DP4; other: tested directly following parallel synthesis, without purification; compounds of formula (Ib) from parallel synthesis, tested directly following synthesis; details: DP IV inhibition; compounds of formula (Ib) from parallel synthesis, tested directly following synthesis (without purification); read-out: IC50
# In short: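 Porcine kidney or recombinant human enzyme (~40-50 μU/ml, HEPES buffer) hydrolysing Gly-Pro-pNA at room temperature, with 5% DMSO final; 11-point 1:2 dilutions from 100 μM final, in duplicate. pNA release read at 405 nm over ~18 min; slopes vs solvent control give residual activity, and IC50 comes from a 4-parameter fit.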
# [2] = Caco-2 transport assay; assay type: in vitro ADME, human; details: human, Caco-2, pH 7.5; for Papp A→B: apical to basal; for Papp B→A: basal to apical
# Experimental: (§1) The concentration of compounds in the Caco experiments may be determined from their potency to inhibit recombinant human DP IV.
# (§2) Reaction is started by addition of 20 μl rhDP IV and release of pNA was monitored at 405 nm. Samples are analyzed in several dilutions (undiluted, 1:10, 1:[…]). Dilutions are done in the Caco assay buffer. Activity measured with Caco-assay buffer alone is set to 100% and inhibitor concentration is calculated from the dilutions resulting in 20 to 80% inhibition according to the equation for competitive inhibition.
# (§3) [formula] • I=inhibitor concentration • v0=velocity of the reaction without inhibitor (Caco assay buffer alone) • vi=velocity of the reaction with inhibitor sample • Ki=Ki-value of the compound • DF=dilution factor of the sample Transport Assay
# (§4) The human colon adenocarcinome cell line Caco-2 are grown in 6- or 24-transwell microplates (Costar) for 21 days with MEM-alpha containing 10% FBS and 0.5% Gentamycin (Invitrogen). After 21 days of cultivation integrity of the cell layer are assessed by measurement of the transepitelial electrical resistance.
# (§5) Transport measurements are carried out in triplicates at a pH of 7.5. For each compound and direction (apical to basal (a-b), basal to apical (b-a)) two separate experiments are done. Samples are collected from the donor and acceptor compartments at the beginning of the experiment and after 60 min (for 6-well plates, Donor at 0 and 120 min, Acceptor at 15, 30, 60 and 120 min).
# (§6) Samples are analyzed in several dilutions for their ability to inhibit human recombinant DP IV and compound concentrations may be calculated using the prior determined Ki-value (see above).
# (§7) The permeability coefficient Papp is calculated according to the following equation:
# (§8) [formula] • VA=Volume of the acceptor compartment • A=Area of the transwell membrane • t=sampling time • cAt=concentration in the acceptor compartment at sampling time • CDO=concentration in the donor compartment at t=0
# (§9) Papp-values>1e-5 cm/s are assessed as good permeable, value<1e-6 cm/s as not permeable. Papp-values in between as medium permeable. Compounds where no significant difference were found between a-b and b-a transport are assessed to be passive transported.
# [3] = tested on: Caco-2 monolayer; assay: Caco-2 transport assay; assay type: in vitro ADME, human; details: assessment of permeability and transport type
# Experimental: as §1, §2, §3, §4, §5, §6, §7, §8, §9
# [4] = target: DPII (Homo sapiens, UniProt Q9UHL4); assay: DPII assay; assay type: biochemical; details: for Selectivity DPII(IC50)/DPIV(Ki): ratio IC50 DPII / Ki DP IV; for IC50: sodium acetate buffer pH 5.5, Gly-Pro-AMC 1 mM
# Experimental: (§10) Determination of IC50 values for DPII and DP9 are done similarly as described for DP IV.
# For DPII instead of the HEPES buffer a 0.2 M sodium acetate buffer pH 5.5 is used. As substrate Gly-Pro-AMC is used in a final concentration of 1 mM.
# [5] = tested on: neuroblastoma cell line SY5Y; assay: LD50 determination on SY5Y (LDH); assay type: cell-based; details: 8 serial dilutions, highest concentration 1 mM
# Experimental: After 24 h of cultivation in a 96 well plate (50 000 cells/well) compounds (dissolved in DMSO) are added and cytotoxicity and vitality of the cells are analysed after another 24 h of cultivation using the CytoTox-One Homogenoeous membrane toxicity assay (Promega).
# For cytotoxicity the LDH activity in the cell culture media after 24 h of incubation are analysed. The untreated control is set to 0% cytotoxicity. For the 100% value LDH activity of lysed untreated cells are analysed.
# For viability cell culture media are removed from the cells and all cells are lysed using the lysis buffer. LDH activity is determined and untreated control is set to 100% viability.
# For determination of LD50 the liver carcinoma cell line HEP-G2 and the neuroblastoma cell line SY5Y may be used. The effect of 8 serial dilutions of the compounds (highest concentration 1 mM) is investigated as described above.
# [6] = target: T1, DP IV; assay: Ki and inhibition type, DP IV; assay type: biochemical; details: compounds obtained by preparative synthesis
# Experimental: Measurement of DP IV activities for Ki determination is carried out as described for IC50. For Ki determination samples were analysed in triplicates. 7 serial dilutions of the inhibitor (range calculated from the IC50 determination) in water are analyzed with 4 serial dilutions of the substrate.
# Data are analysed by non-linear regression to the inhibitor equations using Graphit software. Ki-value and inhibition type are determined using the inhibitor equation (competitive, partiell competitive, non-competitive) which gives the best fitting results. […]
# [7] = target: dipeptidyl peptidase (DP IV) (UniProt P27487); assay: Determination of IC50 against DP IV (hydrolysis of Gly-Pro-pNA); assay type: biochemical, porcine kidney or recombinant human; details: compounds obtained by preparative synthesis
# Experimental: Determination of IC50 Against DP IV
# Substances are screened for inhibition of dipeptidyl peptidase (DP IV) by their ability to inhibit the hydrolysis of the DP IV specific substrate Glycyl-Prolyl-4-Nitroanilide (Gly-Pro-pNA). All compounds are diluted in DMSO and IC50 will be determined with 11 serial dilutions (1:2) starting with an final concentration of 100 μM. The final DMSO concentration in the assay is 5% (v/v). The method was automated using a Tecan Genesis Freedom liquid handler and a Genius Pro (Tecan) microplate reader.
# A stock solution of 0.102 M HEPES is prepared. Ionic strength (I=0.32) is adjusted by KCl and pH (pH 7.6) by KOH.
# 2.16 mM solution of Gly-Pro-pNA in deionized water is prepared.
# All samples are dissolved in DMSO preparing a 10 mM stock solution.
# DP IV from porcine kidney (pDP IV) or recombinant human DP IV (rhDP IV) is diluted in HEPES buffer to a final activity of approximately 40-50 μU*ml^−1. The DP IV is stored in a cooling rack (4° C.) on the liquid handler.
# The assay may becarried out at room temperature using Freedom liquid handler connected with a Genios Pro microplate reader. Each sample is measured in duplicate. Each sample stock solution is prediluted with DMSO in a ratio of 1:5 in a polypropylen 96-well plate. From this predilution 10 serial (1:2) dilutions in DMSO are prepared. 13.5 μl of the 11 DMSO dilutions and DMSO alone are transferred to the measurement microplate (duplicates) and 86.5 μl water, 100 μl HEPES buffer and 50 μl substrate solution are added to each well. The enzymatic reaction is started by addition of 20 μl enzyme solution to each well, and then the microplate is immediately transferred to the microplate reader.
# After short mixing (20 s) the release of 4-Nitroanilin (pNA) is monitored at 405 nm for 30 cycles (approx. 18 min).
# Post assay calculations are done by the Magellan (Tecan) and Graphit Software. The linear slopes are calculated for each well and averaged for the duplicates. The residue activities are calculated in relation to a sample containing only solvent instead of inhibitor and expressed in %. Residue activities are plotted against the log of inhibitor concentrations and IC50 is calculated by an 4-parameter fitting ranging from 0 to 100%.
# [8] = target: DP9 (Homo sapiens, UniProt Q86TI2); assay: DP9 assay; assay type: biochemical; details: for IC50: Gly Pro-AMC 0.25 mM; for Selectivity DP9(IC50)/DPIV(Ki): ratio IC50 DP9 / Ki DP IV
# Experimental: as §10
# For DP9 Gly Pro-AMC is used as substrate in a final concentration of 0.25 mM.
# [9] = tested on: liver cell carcinoma cell line Hep-G2; assay: Cytotoxicity screening and LD50 determination on Hep-G2 (LDH, CytoTox-One); assay type: cell-based; details: for LD50 Viability HEP-G2 / LD50 cytotox HEP-G2: 8 serial dilutions, highest concentration 1 mM; for Cytotox 100 μM (%) HEPG2 / Viability 100 μM (%) HEP-G2: 24 h; for Cytotox 100 μM (%) HEPG2: LDH activity in cell culture media, lysed untreated cells = 100%; for Viability 100 μM (%) HEP-G2: LDH of lysed cells, untreated control = 100%
# In short: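 Hep-G2 cells (50 000/well) precultured 24 h, then compound in DMSO (final 1%) added for 24 h. Screen at 100 μM, 2 μM, 40 nM in triplicate. LDH in medium gave cytotoxicity (untreated 0%, lysed 100%); LDH of lysed cells gave viability. LD50 from 8 serial dilutions, top 1 mM.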
# [10] = solubility (dosing solution in saline); assay type: physicochemical; details: compounds were dissolved in saline for dosing
# Experimental: The animals were treated by a single oral dose of 3 mg/kg (5 mL/kg b.w.; treatment A) followed by a wash-out period of at least 3 days before intraarterial administration of 3 mg/kg (2 mL/kg b.w.; treatment B). The compounds were dissolved in saline to a final concentration adequate for an application of 3 mg/kg b.w.
# T1 sequence (P27487 whole entry): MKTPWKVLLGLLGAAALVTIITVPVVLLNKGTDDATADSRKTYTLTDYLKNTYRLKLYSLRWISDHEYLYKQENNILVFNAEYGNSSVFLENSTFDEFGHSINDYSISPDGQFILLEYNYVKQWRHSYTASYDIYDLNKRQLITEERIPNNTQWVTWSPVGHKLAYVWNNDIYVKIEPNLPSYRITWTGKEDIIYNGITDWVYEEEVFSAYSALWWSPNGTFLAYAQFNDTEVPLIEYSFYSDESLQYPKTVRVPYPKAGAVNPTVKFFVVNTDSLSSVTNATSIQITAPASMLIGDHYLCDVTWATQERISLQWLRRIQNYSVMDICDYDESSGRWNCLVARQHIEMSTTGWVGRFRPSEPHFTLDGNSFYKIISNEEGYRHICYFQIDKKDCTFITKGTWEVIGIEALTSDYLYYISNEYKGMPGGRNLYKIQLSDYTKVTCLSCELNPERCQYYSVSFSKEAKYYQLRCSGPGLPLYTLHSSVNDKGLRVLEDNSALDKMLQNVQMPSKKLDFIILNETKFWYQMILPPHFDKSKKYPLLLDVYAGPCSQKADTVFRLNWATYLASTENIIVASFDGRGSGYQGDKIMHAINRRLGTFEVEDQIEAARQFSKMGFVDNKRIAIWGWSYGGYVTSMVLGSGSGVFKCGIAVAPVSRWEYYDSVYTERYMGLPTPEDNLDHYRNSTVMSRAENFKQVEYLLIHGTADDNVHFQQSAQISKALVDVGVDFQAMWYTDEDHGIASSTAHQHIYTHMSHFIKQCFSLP
# DP9, sequence (Q86TI2 whole entry, species assumed): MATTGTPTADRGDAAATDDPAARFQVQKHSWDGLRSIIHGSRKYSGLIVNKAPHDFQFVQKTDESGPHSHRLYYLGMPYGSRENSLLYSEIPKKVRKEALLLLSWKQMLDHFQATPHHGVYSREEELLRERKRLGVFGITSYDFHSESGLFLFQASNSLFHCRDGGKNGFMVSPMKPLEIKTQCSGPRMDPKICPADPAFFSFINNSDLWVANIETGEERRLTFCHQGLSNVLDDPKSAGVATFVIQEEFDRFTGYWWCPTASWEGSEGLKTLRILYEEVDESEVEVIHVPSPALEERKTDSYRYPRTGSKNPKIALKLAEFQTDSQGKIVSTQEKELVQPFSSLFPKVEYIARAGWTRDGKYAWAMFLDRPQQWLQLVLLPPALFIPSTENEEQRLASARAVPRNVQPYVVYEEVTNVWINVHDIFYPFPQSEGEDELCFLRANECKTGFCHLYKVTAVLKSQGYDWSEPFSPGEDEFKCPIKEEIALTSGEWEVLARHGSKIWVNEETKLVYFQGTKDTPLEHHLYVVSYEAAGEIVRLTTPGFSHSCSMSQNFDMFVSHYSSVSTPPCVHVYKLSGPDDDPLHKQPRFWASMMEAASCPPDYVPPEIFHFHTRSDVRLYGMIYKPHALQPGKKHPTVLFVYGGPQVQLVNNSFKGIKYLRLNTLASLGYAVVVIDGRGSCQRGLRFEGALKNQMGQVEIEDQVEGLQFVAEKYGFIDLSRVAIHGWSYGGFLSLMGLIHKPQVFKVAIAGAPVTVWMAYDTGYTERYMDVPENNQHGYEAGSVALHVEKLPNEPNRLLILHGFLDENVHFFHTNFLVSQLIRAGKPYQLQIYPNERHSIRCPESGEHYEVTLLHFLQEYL
IC50 [1] [nM],Papp A→B [2] [×10⁻⁶ cm/s],Papp B→A [2] [×10⁻⁶ cm/s],Transport [3],Ki [4] [nM],Selectivity DPII(IC50)/DPIV(Ki) [4],IC50 [4] [nM],Ki [6] [nM],IC50 [7] [nM],Ki [8] [nM],IC50 [8] [nM],Selectivity DP9(IC50)/DPIV(Ki) [8],solubility [10],SMILES,LD50 Viability SY5Y [5] [mM],LD50 cytotox SY5Y [5] [mM],LD50 Viability HEP-G2 [9] [mM],LD50 cytotox HEP-G2 [9] [mM],Cytotox 100 μM (%) HEPG2 ([9]; 100 μM) [%],Viability 100 μM (%) HEP-G2 ([9]; 100 μM) [%],"Observed cytotox ([9]; 100 μM, Hep-G2, observation of the cells) [% spheric]"
1000,41.9,16,"good, active in",2180,383,7460,19.5,139,7650,38300,"1,964",–,"NCc1c(-c2ccc(Cl)cc2Cl)ncn1Cc1ccccc1Cl [Example 81b, C-[3-(2-chloro-benzyl)-5-(2,4-dichloro-phenyl)-3H-imidazol-4-yl]-methylamine]",0.07,0.16,0.14,0.12,–,–,–
1900,51.2,52.8,"good, passive",–,"1,177",18600,15.8,261,–,59700,"3,778",–,"COc1ccccc1Cn1cnc(-c2ccc(Cl)cc2Cl)c1CN [Example 120b, C-[5-(2,4-dichloro-phenyl)-3-(2-methoxy-benzyl)-3H-imidazol-4-yl]-methylamine]",0.10,0.16,0.21,0.17,11.6,108.9,50
–,45.1,15,"good, active in",1570,540,3420,6.33,54,–,34300,"5,419",low solubility,"CCOc1ccccc1Cn1cnc(-c2ccc(Cl)cc2Cl)c1CN [Example 128b, (1-(2-ethoxybenzyl)-4-(2,4-dichlorophenyl)-1H-imidazol-5-yl)methanamine]",0.07,0.15,0.15,0.14,–,–,–

SMILES,IC50 [1] [nM],Papp A→B [2] [×10⁻⁶ cm/s],Papp B→A [2] [×10⁻⁶ cm/s],Transport [3],Ki [4] [nM],Selectivity DPII(IC50)/DPIV(Ki) [4],IC50 [4] [nM],Ki [6] [nM],IC50 [7] [nM],Ki [8] [nM],IC50 [8] [nM],Selectivity DP9(IC50)/DPIV(Ki) [8],solubility [10],LD50 Viability SY5Y [5] [mM],LD50 cytotox SY5Y [5] [mM],LD50 Viability HEP-G2 [9] [mM],LD50 cytotox HEP-G2 [9] [mM],Cytotox 100 μM (%) HEPG2 ([9]; 100 μM) [%],Viability 100 μM (%) HEP-G2 ([9]; 100 μM) [%],"Observed cytotox ([9]; 100 μM, Hep-G2, observation of the cells) [% spheric]"
"NCc1c(-c2ccc(Cl)cc2Cl)ncn1Cc1ccccc1F [Example 112b, C-[5-(2,4-dichloro-phenyl)-3-(2-fluoro-benzyl)-3H-imidazol-4-yl]-methylamine]",3700,44.8,42.1,"good, passive",–,"3,514",36900,10.5,195,–,–,"9,714",–,–,–,–,–,3.0,111.4,–
